Measured values as given in ChEMBL document CHEMBL1201862, “PubChem BioAssay data set” (2004).
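Cultured in 96-well plates, cells were exposed to test compound for 48 hours across five concentrations. The concentration for 50% growth inhibition is given as GI50.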 Active and inactive are the calls of the source. No stated cut-off is given here; in the data, active = GI50 up to about 1.1 µM and inactive = higher.

Assays:
Assay in all cases: growth of human tumour cells (NCI), 48 h
HT-29 = system: HT-29
MOLT-4 = system: MOLT-4
Malme-3M = system: Malme-3M
A498 = system: A498
SN12C = system: SN12C
SK-OV-3 = system: SK-OV-3
COLO 205 = system: COLO 205
SF-295 = system: SF-295
M14 = system: M14
NCI-H226 = system: NCI-H226
PC-3 = system: PC-3
SW-620 = system: SW-620
Hs-578T = system: Hs-578T
UACC-62 = system: UACC-62
K562 = system: K562
SK-MEL-2 = system: SK-MEL-2
CCRF-CEM = system: CCRF-CEM
NCI-H460 = system: NCI-H460
HCC 2998 = system: HCC 2998
OVCAR-8 = system: OVCAR-8

Row | SMILES | GI50 (HT-29) | GI50 (MOLT-4) | GI50 (Malme-3M) | GI50 (A498) | GI50 (SN12C) | GI50 (SK-OV-3) | GI50 (COLO 205) | GI50 (SF-295) | GI50 (M14) | GI50 (NCI-H226) | GI50 (PC-3) | GI50 (SW-620) | GI50 (Hs-578T) | GI50 (UACC-62) | GI50 (K562) | GI50 (SK-MEL-2) | GI50 (CCRF-CEM) | GI50 (NCI-H460) | GI50 (HCC 2998) | GI50 (OVCAR-8)
1 | C=C(C)C1CC2=C(O1)C(=O)c1cccc(O)c1C2=O (centres undefined) | 1.59 µM (inactive) | 0.2 µM (active) | 1.08 µM (active) | 5.46 µM (inactive) | 1.21 µM (inactive) | 1.51 µM (inactive) | 1.75 µM (inactive) | 1.36 µM (inactive) | 0.951 µM (active) | 1.78 µM (inactive) | 1.69 µM (inactive) | 0.929 µM (active) | 1.16 µM (inactive) | 0.883 µM (active) | 0.0935 µM (active) | 1.17 µM (inactive) | 0.209 µM (active) | 1.91 µM (inactive) | 1.99 µM (inactive) | 
2 | COC(=O)CN1Cc2cc(C)cc(c2O)CN(CC(=O)OC)Cc2cc(C)cc(c2O)CN(CC(=O)OC)Cc2cc(C)cc(c2O)C1 | > 47.9 µM (inactive) | > 100 µM (inactive) | > 100 µM (inactive) | > 51.8 µM (inactive) | > 100 µM (inactive) | > 45.5 µM (inactive) | > 54.3 µM (inactive) | > 61.8 µM (inactive) | > 37.8 µM (inactive) | > 37.4 µM (inactive) | > 32.9 µM (inactive) | > 87.3 µM (inactive) | > 100 µM (inactive) | > 100 µM (inactive) | > 100 µM (inactive) | > 39.8 µM (inactive) | 6.76 µM (inactive) | 0.272 µM (active) | 2.03 µM (inactive) | > 100 µM (inactive)
3 | COc1cc(S(=O)(=O)Nc2nc(-c3ccc(/N=C/c4ccccc4O)cc3)cs2)ccc1Cl | 44 µM (inactive) | 27.5 µM (inactive) | 40.3 µM (inactive) | 41.7 µM (inactive) | 17.9 µM (inactive) | 44.9 µM (inactive) | 25.7 µM (inactive) | 36 µM (inactive) | 30.1 µM (inactive) | 44.2 µM (inactive) | 39.1 µM (inactive) | 79.8 µM (inactive) | 38.2 µM (inactive) | 23.7 µM (inactive) | 30.4 µM (inactive) | 34.7 µM (inactive) | 26.5 µM (inactive) | 35.3 µM (inactive) | 45.5 µM (inactive) | 38.5 µM (inactive)
4 | N=C(N)C(/N=N\c1ccccc1)C(=N)N (centres undefined) | 29.8 µM (inactive) | 30.5 µM (inactive) | 51.1 µM (inactive) | 54.5 µM (inactive) | 36.6 µM (inactive) | 64.6 µM (inactive) | 29.8 µM (inactive) | 32.9 µM (inactive) | 40.7 µM (inactive) | 15 µM (inactive) | 31.8 µM (inactive) | 34.4 µM (inactive) | 48.9 µM (inactive) | 34.5 µM (inactive) | 23.7 µM (inactive) | 23.4 µM (inactive) | 13.5 µM (inactive) | 32.1 µM (inactive) | 16.5 µM (inactive) | 95.5 µM (inactive)
5 | C[C@@H](NC(=O)c1ccc(CNC(=O)/C=C/c2cccc(Oc3ccccc3)c2)cc1)c1ccccc1 | 22.6 µM (inactive) | > 100 µM (inactive) | > 76.2 µM (inactive) | 31 µM (inactive) | > 100 µM (inactive) | > 93.1 µM (inactive) | > 100 µM (inactive) | 26.8 µM (inactive) | 99.1 µM (inactive) | 28.4 µM (inactive) | > 42.4 µM (inactive) | > 100 µM (inactive) | 7.33 µM (inactive) | > 82.6 µM (inactive) | > 100 µM (inactive) | > 60.1 µM (inactive) | > 100 µM (inactive) | 34.7 µM (inactive) | > 100 µM (inactive) | 32.9 µM (inactive)
6 | CC(=O)CC(OC(C)=O)C1=CCC2C(CC1C)OC(=O)C2C (centres undefined) | > 100 µM (inactive) | > 100 µM (inactive) | > 100 µM (inactive) | > 100 µM (inactive) | > 100 µM (inactive) | > 100 µM (inactive) | > 100 µM (inactive) | > 100 µM (inactive) | > 100 µM (inactive) | > 100 µM (inactive) | > 100 µM (inactive) | > 100 µM (inactive) | > 100 µM (inactive) | > 100 µM (inactive) | > 100 µM (inactive) | > 100 µM (inactive) | 64.9 µM (inactive) | > 100 µM (inactive) | > 100 µM (inactive) | > 100 µM (inactive)
7 | C=C(CN)CO[Si](C)(C)C(C)(C)C | > 100 µM (inactive) | > 100 µM (inactive) | > 100 µM (inactive) | > 100 µM (inactive) | > 100 µM (inactive) | > 100 µM (inactive) | > 100 µM (inactive) | > 100 µM (inactive) | > 100 µM (inactive) | > 100 µM (inactive) | > 100 µM (inactive) | > 100 µM (inactive) | > 100 µM (inactive) | > 100 µM (inactive) | > 100 µM (inactive) | > 100 µM (inactive) | > 100 µM (inactive) | > 100 µM (inactive) | > 100 µM (inactive) | > 100 µM (inactive)
